Measurements: US20120028917A1, “Use Of N-(4-((3-(2-Amino-4-Pyrimidinyl)-2-Pyridinyl)Oxy)Phenyl)-4-(4-Methyl-2-Thienyl)-1-Phthalazinamine In The Treatment Of Antimitotic Agent Resistant Cancer” (Amgen Inc., priority 2009, published 2012)

How the values were obtained:
Experiment in all cases: Antiproliferative assay (ArrayScan VTi)
Type in all cases: cell-based
769P = settings: Homo sapiens; 769P* (Kidney), paclitaxel-resistant; 24 h treatment, then 48 h without compound
Experimental: (§1) Tumor cells were seeded in a Packard View 96-well plate in 100 μL of appropriate complete media at a density of 3000 or 5000 cells/well depending on the cell line growth kinetics (broadly defined as slow vs. fast). All dilutions were performed using Biomek FX workstation. The next day cells were treated with AMG 900 (11-point dose range 0.156 to 0.0003 μM) with a final DMSO concentration of 0.12% in media. After 24 hours, the media containing compound was removed and the cells were washed with complete media. The cells were then incubated in 100 μL of fresh complete media (without compound) for 48 hours. After 48 hours, the cells were fixed by adding 100 μL of fixation buffer to 100 μL of complete media. The cells were incubated at room temperature for 10 minutes. The fixation buffer was aspirated and the cells were then permeabilized in 100 μL wash buffer for 30 minutes at room temperature followed by the addition of 100 μL of DNA stain buffer and incubated at room temperature for 30 minutes in the dark. Next, the cells were washed with 100 μL of wash buffer and stored in 100 μL 1×PBS at 4 degrees Celsius until analysis. Cellular data was attained by scanning the 96-well plates on an ArrayScan VTi imaging system (Cellomics). Quantification of individual cell nuclear area and intensity was performed based on Hoechst 33342 DNA dye fluorescence. A threshold on the nuclear area based on the DMSO-treated control well was set to quantify the number of normal size nuclei from nuclear debris and polyploidy cells. This threshold value was applied to enumerate the number of normal nuclei in six image fields/well using a magnification of 10×. The dose-concentration curves and EC50 values were calculated using a 4-parameter equation.

A498 = settings: Homo sapiens; A498 (Kidney); 24 h treatment, then 48 h without compound
Experimental: as §1

A549 = settings: Homo sapiens; A549 (Lung); 24 h treatment, then 48 h without compound
Experimental: as §1

BT549 = settings: Homo sapiens, BT-549; BT549 (Breast); 24 h treatment, then 48 h without compound
Experimental: as §1

CAKI-1 = settings: Homo sapiens; CAKI-1 (Kidney); 24 h treatment, then 48 h without compound
Experimental: as §1

CAL51 = settings: Homo sapiens, CAL-51; CAL51 (Breast); 24 h treatment, then 48 h without compound
Experimental: as §1

DU145 = settings: Homo sapiens, DU-145; DU145 (Prostate); 24 h treatment, then 48 h without compound
Experimental: as §1

HCT 116_JH_p21+/+ = settings: Homo sapiens; HCT 116_JH_p21+/+ (Colon); 24 h treatment, then 48 h without compound
Experimental: as §1

HCT 116_JH_p21−/− = settings: Homo sapiens; HCT 116_JH_p21−/− (Colon); 24 h treatment, then 48 h without compound
Experimental: as §1

HCT15 = settings: Homo sapiens, HCT-15; HCT15* (Colon), paclitaxel-resistant; 24 h treatment, then 48 h without compound
Experimental: as §1

HOP-62 = settings: Homo sapiens; HOP-62 (Lung); 24 h treatment, then 48 h without compound
Experimental: as §1

HOP-92 = settings: Homo sapiens; HOP-92 (Lung); 24 h treatment, then 48 h without compound
Experimental: as §1

HT29 = settings: Homo sapiens, HT-29; HT29 (Colon); 24 h treatment, then 48 h without compound
Experimental: as §1

MCF7-p53+ = settings: Homo sapiens; MCF7-p53+ (Breast); 24 h treatment, then 48 h without compound
Experimental: as §1

MCF7-p53− = settings: Homo sapiens; MCF7-p53− (Breast); 24 h treatment, then 48 h without compound
Experimental: as §1

MDA-MB-231 = settings: Homo sapiens; MDA-MB-231 (Breast); 24 h treatment, then 48 h without compound
Experimental: as §1

MES-SA Dx5 = settings: Homo sapiens; MES-SA Dx5* (Uterine), paclitaxel-resistant; 24 h treatment, then 48 h without compound
Experimental: as §1

NCI-H460 = settings: Homo sapiens; NCI-H460 (Lung); 24 h treatment, then 48 h without compound
Experimental: as §1

PC3 = settings: Homo sapiens, PC-3; PC3 (Prostate); 24 h treatment, then 48 h without compound
Experimental: as §1

SK-HEP-1 = settings: Homo sapiens, SK-HEP1; SK-HEP-1 (Liver); 24 h treatment, then 48 h without compound
Experimental: as §1

SK-MEL-2 = settings: Homo sapiens; SK-MEL-2 (Skin); 24 h treatment, then 48 h without compound
Experimental: as §1

SK-OV-3 = settings: Homo sapiens; SK-OV-3 (Ovarian); 24 h treatment, then 48 h without compound
Experimental: as §1

SNU449 = settings: Homo sapiens, SNU-449; SNU449* (Liver), paclitaxel-resistant; 24 h treatment, then 48 h without compound
Experimental: as §1

SW480 = settings: Homo sapiens; SW480 (Colon); 24 h treatment, then 48 h without compound
Experimental: as §1

T47D = settings: Homo sapiens; T47D (Breast); 24 h treatment, then 48 h without compound
Experimental: as §1

Measured: EC50

Cc1csc(-c2nnc(Nc3ccc(Oc4ncccc4-c4ccnc(N)n4)cc3)c3ccccc23)c1 [AMG 900, N-(4-((3-(2-amino-4-pyrimidinyl)-2-pyridinyl)oxy)phenyl)-4-(4-methyl-2-thienyl)-1-phthalazinamine]
1 nM: A498 | A549 | CAKI-1 | HCT 116_JH_p21+/+ | HCT 116_JH_p21−/− | MCF7-p53+ | MES-SA Dx5 | NCI-H460 | SK-HEP-1
3 nM: MCF7-p53−
4 nM: BT549
5 nM: HT29 | T47D
2 nM: all other assays above
